Assays:
Test in all cases: relative viability (nuclei count vs DMSO), 5 days (fraction); higher = more cells survive
[1] = compound: CCN1CCC(CC1)N2C=C(N=N2)CNC3=CC4=C(C(=CN=C4C(=C3)Cl)C#N)NC5=CC(=C(C=C5)F)Cl [KIN001-266] + CC(=O)c1c(C)c2cnc(Nc3ccc(N4CCNCC4)cn3)nc2n(C2CCCC2)c1=O [Palbociclib] (partner 0.5 µM)
Procedure, shortened: (§1)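 Nuclei were stained with Hoechst during a one-step fixation (final 0.05% Triton X-100, 1% formaldehyde, 1 ug/ml Hoechst) carried out 5 days after dosing, then counted on 4× images. The cells, lung cancer lines in 1536-well plates, had been dosed by pin tool the day after seeding with one drug alone or a fixed anchor-drug dose plus five library-drug doses (not always all listed) in √10 steps. Relative viability is the nuclei count in treated wells divided by that in vehicle wells, and each value is the median of duplicate plates.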

[2] = compound: CCN1CCC(CC1)N2C=C(N=N2)CNC3=CC4=C(C(=CN=C4C(=C3)Cl)C#N)NC5=CC(=C(C=C5)F)Cl [KIN001-266] + Cc1nc(Nc2ncc(C(=O)Nc3c(C)cccc3Cl)s2)cc(N2CCN(CCO)CC2)n1 [Dasatinib] (partner 0.075 µM)
Procedure, shortened: as §1

[3] = compound: CCN1CCC(CC1)N2C=C(N=N2)CNC3=CC4=C(C(=CN=C4C(=C3)Cl)C#N)NC5=CC(=C(C=C5)F)Cl [KIN001-266] + Cc1nc(NC(=O)N2CCC[C@H]2C(N)=O)sc1-c1ccnc(C(C)(C)C(F)(F)F)c1 [Alpelisib] (partner 2 µM)
Procedure, shortened: as §1

[4] = compound: CCN1CCC(CC1)N2C=C(N=N2)CNC3=CC4=C(C(=CN=C4C(=C3)Cl)C#N)NC5=CC(=C(C=C5)F)Cl [KIN001-266] + CC(C)C[C@H](NC(=O)[C@H](Cc1ccccc1)NC(=O)c1cnccn1)B(O)O [Bortezomib] (partner 0.002 µM)
Procedure, shortened: as §1

201T
relative viability ([1]; first compound 0.08 µM): 0.342 | relative viability ([1]; first compound 0.253 µM): 0.366 | relative viability ([1]; first compound 0.8 µM): 0.35 | relative viability ([1]; first compound 2.53 µM): 0.361 | relative viability ([1]; first compound 8 µM): 0.359 | relative viability ([2]; first compound 0.08 µM): 0.62 | relative viability ([2]; first compound 0.253 µM): 0.513 | relative viability ([2]; first compound 0.8 µM): 0.545 | relative viability ([2]; first compound 2.53 µM): 0.606 | relative viability ([2]; first compound 8 µM): 0.589 | relative viability ([3]; first compound 0.08 µM): 1.03 | relative viability ([3]; first compound 0.253 µM): 1 | relative viability ([3]; first compound 0.8 µM): 1.02 | relative viability ([3]; first compound 2.53 µM): 1.05 | relative viability ([3]; first compound 8 µM): 1.01 | relative viability ([4]; first compound 0.08 µM): 1.09 | relative viability ([4]; first compound 0.253 µM): 0.941 | relative viability ([4]; first compound 0.8 µM): 1.08 | relative viability ([4]; first compound 2.53 µM): 1.06 | relative viability ([4]; first compound 8 µM): 1.16

NCI-H838
relative viability ([1]; first compound 0.08 µM): 0.228 | relative viability ([1]; first compound 0.253 µM): 0.207 | relative viability ([1]; first compound 0.8 µM): 0.212 | relative viability ([1]; first compound 2.53 µM): 0.164 | relative viability ([1]; first compound 8 µM): 0.22 | relative viability ([2]; first compound 0.08 µM): 0.275 | relative viability ([2]; first compound 0.253 µM): 0.267 | relative viability ([2]; first compound 0.8 µM): 0.338 | relative viability ([2]; first compound 2.53 µM): 0.26 | relative viability ([2]; first compound 8 µM): 0.282 | relative viability ([3]; first compound 0.08 µM): 1.04 | relative viability ([3]; first compound 0.253 µM): 0.998 | relative viability ([3]; first compound 0.8 µM): 1.05 | relative viability ([3]; first compound 2.53 µM): 0.966 | relative viability ([3]; first compound 8 µM): 0.694 | relative viability ([4]; first compound 0.08 µM): 0.831 | relative viability ([4]; first compound 0.253 µM): 0.737 | relative viability ([4]; first compound 0.8 µM): 0.85 | relative viability ([4]; first compound 2.53 µM): 0.719 | relative viability ([4]; first compound 8 µM): 0.56

SW 1573
relative viability ([1]; first compound 0.08 µM): 0.39 | relative viability ([1]; first compound 0.253 µM): 0.376 | relative viability ([1]; first compound 0.8 µM): 0.457 | relative viability ([1]; first compound 2.53 µM): 0.426 | relative viability ([1]; first compound 8 µM): 0.356 | relative viability ([2]; first compound 0.08 µM): 0.515 | relative viability ([2]; first compound 0.253 µM): 0.735 | relative viability ([2]; first compound 0.8 µM): 0.483 | relative viability ([2]; first compound 2.53 µM): 0.503 | relative viability ([2]; first compound 8 µM): 0.437 | relative viability ([3]; first compound 0.08 µM): 0.789 | relative viability ([3]; first compound 0.253 µM): 0.775 | relative viability ([3]; first compound 0.8 µM): 0.709 | relative viability ([3]; first compound 2.53 µM): 0.764 | relative viability ([3]; first compound 8 µM): 0.693 | relative viability ([4]; first compound 0.08 µM): 1.13 | relative viability ([4]; first compound 0.253 µM): 0.914 | relative viability ([4]; first compound 0.8 µM): 1.09 | relative viability ([4]; first compound 2.53 µM): 0.92 | relative viability ([4]; first compound 8 µM): 0.808

PC-14
relative viability ([1]; first compound 0.08 µM): 0.55 | relative viability ([1]; first compound 0.253 µM): 0.518 | relative viability ([1]; first compound 0.8 µM): 0.594 | relative viability ([1]; first compound 2.53 µM): 0.509 | relative viability ([1]; first compound 8 µM): 0.0895 | relative viability ([2]; first compound 0.08 µM): 0.297 | relative viability ([2]; first compound 0.253 µM): 0.277 | relative viability ([2]; first compound 2.53 µM): 0.203 | relative viability ([2]; first compound 8 µM): 0.0481 | relative viability ([3]; first compound 0.08 µM): 0.927 | relative viability ([3]; first compound 0.253 µM): 0.923 | relative viability ([3]; first compound 0.8 µM): 0.918 | relative viability ([3]; first compound 2.53 µM): 0.906 | relative viability ([3]; first compound 8 µM): 0.663 | relative viability ([4]; first compound 0.08 µM): 0.881 | relative viability ([4]; first compound 0.253 µM): 0.816 | relative viability ([4]; first compound 0.8 µM): 0.892 | relative viability ([4]; first compound 2.53 µM): 0.759 | relative viability ([4]; first compound 8 µM): 0.297

COR-L23
relative viability ([1]; first compound 0.08 µM): 0.334 | relative viability ([1]; first compound 0.253 µM): 0.28 | relative viability ([1]; first compound 0.8 µM): 0.281 | relative viability ([1]; first compound 2.53 µM): 0.294 | relative viability ([1]; first compound 8 µM): 0.22 | relative viability ([2]; first compound 0.08 µM): 0.523 | relative viability ([2]; first compound 0.253 µM): 0.495 | relative viability ([2]; first compound 0.8 µM): 0.476 | relative viability ([2]; first compound 2.53 µM): 0.484 | relative viability ([2]; first compound 8 µM): 0.372 | relative viability ([3]; first compound 0.08 µM): 0.735 | relative viability ([3]; first compound 0.253 µM): 0.804 | relative viability ([3]; first compound 0.8 µM): 0.814 | relative viability ([3]; first compound 2.53 µM): 0.736 | relative viability ([3]; first compound 8 µM): 0.404 | relative viability ([4]; first compound 0.08 µM): 0.966 | relative viability ([4]; first compound 0.253 µM): 0.994 | relative viability ([4]; first compound 0.8 µM): 0.927 | relative viability ([4]; first compound 2.53 µM): 0.857 | relative viability ([4]; first compound 8 µM): 0.777

HCC-78
relative viability ([1]; first compound 0.08 µM): 0.506 | relative viability ([1]; first compound 0.253 µM): 0.518 | relative viability ([1]; first compound 0.8 µM): 0.476 | relative viability ([1]; first compound 2.53 µM): 0.431 | relative viability ([1]; first compound 8 µM): 0.415 | relative viability ([2]; first compound 0.08 µM): 0.566 | relative viability ([2]; first compound 0.253 µM): 0.421 | relative viability ([2]; first compound 2.53 µM): 0.361 | relative viability ([2]; first compound 8 µM): 0.38 | relative viability ([3]; first compound 0.08 µM): 0.302 | relative viability ([3]; first compound 0.253 µM): 0.346 | relative viability ([3]; first compound 0.8 µM): 0.377 | relative viability ([3]; first compound 2.53 µM): 0.46 | relative viability ([3]; first compound 8 µM): 0.411 | relative viability ([4]; first compound 0.08 µM): 0.57 | relative viability ([4]; first compound 0.253 µM): 0.261 | relative viability ([4]; first compound 0.8 µM): 0.464 | relative viability ([4]; first compound 2.53 µM): 0.495 | relative viability ([4]; first compound 8 µM): 0.616

NCI-H2405
relative viability ([1]; first compound 0.08 µM): 0.525 | relative viability ([1]; first compound 0.253 µM): 0.567 | relative viability ([1]; first compound 0.8 µM): 0.551 | relative viability ([1]; first compound 2.53 µM): 0.467 | relative viability ([1]; first compound 8 µM): 0.441 | relative viability ([2]; first compound 0.08 µM): 0.207 | relative viability ([2]; first compound 0.253 µM): 0.241 | relative viability ([2]; first compound 0.8 µM): 0.233 | relative viability ([2]; first compound 2.53 µM): 0.223 | relative viability ([2]; first compound 8 µM): 0.202 | relative viability ([3]; first compound 0.08 µM): 0.807 | relative viability ([3]; first compound 0.253 µM): 0.719 | relative viability ([3]; first compound 0.8 µM): 0.759 | relative viability ([3]; first compound 2.53 µM): 0.74 | relative viability ([3]; first compound 8 µM): 0.38 | relative viability ([4]; first compound 0.08 µM): 0.99 | relative viability ([4]; first compound 0.253 µM): 1 | relative viability ([4]; first compound 0.8 µM): 0.984 | relative viability ([4]; first compound 2.53 µM): 0.925 | relative viability ([4]; first compound 8 µM): 0.809

SK-LU-1
relative viability ([1]; first compound 0.08 µM): 0.393 | relative viability ([1]; first compound 0.253 µM): 0.381 | relative viability ([1]; first compound 0.8 µM): 0.421 | relative viability ([1]; first compound 2.53 µM): 0.373 | relative viability ([1]; first compound 8 µM): 0.339 | relative viability ([2]; first compound 0.08 µM): 0.192 | relative viability ([2]; first compound 0.253 µM): 0.19 | relative viability ([2]; first compound 0.8 µM): 0.172 | relative viability ([2]; first compound 2.53 µM): 0.197 | relative viability ([2]; first compound 8 µM): 0.195 | relative viability ([3]; first compound 0.08 µM): 1.24 | relative viability ([3]; first compound 0.253 µM): 1.07 | relative viability ([3]; first compound 0.8 µM): 1.14 | relative viability ([3]; first compound 2.53 µM): 0.927 | relative viability ([3]; first compound 8 µM): 0.582 | relative viability ([4]; first compound 0.08 µM): 1.39 | relative viability ([4]; first compound 0.253 µM): 1.14 | relative viability ([4]; first compound 0.8 µM): 1.31 | relative viability ([4]; first compound 2.53 µM): 1.12 | relative viability ([4]; first compound 8 µM): 1.04

Reference: the supplement of paper PMC10307832
